{"source": "patent US20100240763A1", "about": "“Method to Determine and Biomarker for Treatment Efficacy With Ssri, Snri, and Sari Antidepressants” (priority 2006, published 2010)", "key": {"[1]": {"test_system": "BDNF^Met/Met, BDNF^+/− and wild-type mice", "test": "open-field test after long-term fluoxetine", "format": "in vivo", "conditions": "fluoxetine orally 18 mg/kg of body weight per day for 21 days vs vehicle", "procedure": "In the open-field test, percentage of time spent in the center in the absence (H2O) or presence of fluoxetine (drug) treatment was measured. […] All results are presented as means±SEM determined from analysis of eight mice per genotype (*P<0.05, **P<0.01). […] BDNF^Met/Met were treated orally with fluoxetine (18 mg/kg of body weight per day) or vehicle for 21 days before assessment in two tests: open field and novelty-induced hypophagia."}, "[2]": {"test_system": "transgenic mice homozygous for the G196A polymorphism and control wild-type mice", "test": "anxiety-related behaviors in conflict/stress tests (open field, elevated plus maze, novelty induced hypophagia) after chronic fluoxetine", "format": "in vivo", "conditions": "chronic administration", "experimental": "Second, we determined that these mice have increased anxiety-related behaviors as assessed by 3 conflict/stress tests (open field, elevated plus maze, novelty induced hypophagia). These tests for anxiety differ from those used in human studies in that the animals' anxiety-related behaviors are assessed after placement in a stressful environment."}}, "note": "Entries after “also recorded” stand apart in the source; their conditions may differ.", "data": [{"smiles": "CNCCC(Oc1ccc(C(F)(F)F)cc1)c1ccccc1", "note": "(stereo not drawn) [fluoxetine]", "values": [{"measurement": "entries into the center", "setting": "[1]; BDNF^Met/Met mice", "value": "blunted response"}, {"measurement": "time spent in the center", "setting": "[1]; BDNF^Met/Met mice, 18 mg/kg/day", "value": "blunted response; also recorded: Decreased response"}, {"measurement": "entries into the center", "setting": "[1]; wild-type mice", "value": "increase in entries into the center"}, {"measurement": "time spent in the center", "setting": "[1]; wild-type mice", "value": "significant increase"}, {"measurement": "anxiety-related behaviors", "setting": "[2]; control wild-type mice", "value": "could robustly diminish"}, {"measurement": "reversal of anxiety-related behaviors", "setting": "[2]; transgenic mice homozygous for the G196A polymorphism", "value": "could not reverse"}]}]}
